Laboratory results published in article PMC10436550, “Subacute toxicity evaluations of LPM3480392 in rats, a full µ-opioid receptor biased agonist” (Frontiers in Pharmacology, 2023).

Test system: Sprague Dawley (SD) rats
Test: Hematology, 4-week subacute toxicity study
[1] = female rats, 0.6 mg/kg/day, End of dosing phase
[2] = female rats, 0.6 mg/kg/day, End of recovery phase
[3] = female rats, 1.2 mg/kg/day, End of dosing phase
[4] = female rats, 1.2 mg/kg/day, End of recovery phase
[5] = female rats, 2.4 mg/kg/day, End of dosing phase
[6] = female rats, 2.4 mg/kg/day, End of recovery phase
[7] = female rats, end of dosing phase
[8] = male rats, 0.6 mg/kg/day, End of dosing phase
[9] = male rats, 0.6 mg/kg/day, End of recovery phase
[10] = male rats, 1.2 mg/kg/day, End of dosing phase
[11] = male rats, 1.2 mg/kg/day, End of recovery phase
[12] = male rats, 2.4 mg/kg/day, End of dosing phase
[13] = male rats, 2.4 mg/kg/day, End of recovery phase

## Fc1ccc([C@]2(CCNCc3cccc(Cl)c3)CCO[C@]3(CCOC3)C2)nc1 [LPM3480392]
[1]
  LYM: 4.17 ± 0.90 10^9/L
  LYM%: 86.1 ± 5.8%
  MCV: 58.1 ± 1.5 fL
  MONO: 0.05 ± 0.02 10^9/L
  MONO%: 1.1 ± 0.4 %
  NEU: 0.51 ± 0.26 10^9/L
  NEU%: 10.6 ± 5.5%
  PLT: 1072 ± 103 10^9/L
  RBC: 6.90 ± 0.35 10^12/L
  WBC: 4.84 ± 0.93 10^9/L
[2]
  LYM: 3.46 ± 0.53 10^9/L
  LYM%: 85.8 ± 4.4 %
  MCV: 56.4 ± 1.2 fL
  MONO: 0.04 ± 0.02 10^9/L
  MONO%: 1.1 ± 0.4 %
  NEU: 0.42 ± 0.17^* 10^9/L
  NEU%: 10.6 ± 4.8 %
  PLT: 975 ± 144 10^9/L
  RBC: 7.56 ± 0.22 10^12/L
  WBC: 4.03 ± 0.57 10^9/L
[3]
  LYM: 4.21 ± 1.29 10^9/L
  LYM%: 85.7 ± 7.2%
  MCV: 58.7 ± 2.1 fL
  MONO: 0.05 ± 0.02 10^9/L
  MONO%: 0.9 ± 0.3 %
  NEU: 0.50 ± 0.24 10^9/L
  NEU%: 11.1 ± 7.2%
  PLT: 1064 ± 104 10^9/L
  RBC: 6.59 ± 0.26^* 10^12/L
  WBC: 4.87 ± 1.28 10^9/L
[4]
  LYM: 2.95 ± 0.75 10^9/L
  LYM%: 85.9 ± 3.0 %
  MCV: 56.6 ± 1.8 fL
  MONO: 0.04 ± 0.01 10^9/L
  MONO%: 1.2 ± 0.4 %
  NEU: 0.35 ± 0.08^* 10^9/L
  NEU%: 10.6 ± 2.5 %
  PLT: 975 ± 42 10^9/L
  RBC: 7.44 ± 0.33 10^12/L
  WBC: 3.42 ± 0.78 10^9/L
[5]
  LYM: 2.53 ± 0.59 10^9/L
  LYM%: 81.1 ± 5.3%
  MCV: 58.1 ± 1.9 fL
  MONO: 0.03 ± 0.02^* 10^9/L
  MONO%: 1.0 ± 0.3 %
  NEU: 0.51 ± 0.29 10^9/L
  NEU%: 15.4 ± 4.6%
  PLT: 946 ± 108^* 10^9/L
  RBC: 6.57 ± 0.30^* 10^12/L
  WBC: 3.15 ± 0.87 10^9/L
[6]
  LYM: 3.02 ± 0.62 10^9/L
  LYM%: 83.7 ± 3.4 %
  MCV: 56.8 ± 0.8 fL
  MONO: 0.04 ± 0.01 10^9/L
  MONO%: 1.2 ± 0.3 %
  NEU: 0.46 ± 0.09^* 10^9/L
  NEU%: 12.8 ± 2.8 %
  PLT: 998 ± 45 10^9/L
  RBC: 7.45 ± 0.17 10^12/L
  WBC: 3.60 ± 0.67 10^9/L
[7]
  Magnitude of change of MCV: less than 5%
  Magnitude of change of PLT: < 15%
  Magnitude of change of RBC: < 6%
[8]
  EOS: 0.042 ± 0.013 10^9/L
  EOS%: 0.90 ± 0.42%
  MONO: 0.07 ± 0.03 10^9/L
  MONO%: 1.3 ± 0.6%
  RBC: 7.05 ± 0.32 10^12/L
  RET: 0.300 ± 0.051 10^12/L
  RET %: 4.26 ± 0.77%
  WBC: 5.19 ± 1.38 10^9/L
[9]
  EOS: 0.046 ± 0.018 10^9/L
  EOS%: 1.14 ± 0.38%
  MONO: 0.04 ± 0.02 10^9/L
  MONO%: 1.0 ± 0.4%
  RBC: 7.96 ± 0.24 10^12/L
  RET: 0.144 ± 0.021 10^12/L
  RET %: 1.81 ± 0.30%
  WBC: 4.04 ± 1.12 10^9/L
[10]
  EOS: 0.035 ± 0.016^* 10^9/L
  EOS%: 0.77 ± 0.39%
  MONO: 0.05 ± 0.02 10^9/L
  MONO%: 1.1 ± 0.3%
  RBC: 7.06 ± 0.32 10^12/L
  RET: 0.331 ± 0.062^* 10^12/L
  RET %: 4.70 ± 0.92 %
  WBC: 4.56 ± 0.55 10^9/L
[11]
  EOS: 0.042 ± 0.013 10^9/L
  EOS%: 0.90 ± 0.12%
  MONO: 0.04 ± 0.02 10^9/L
  MONO%: 0.9 ± 0.3%
  RBC: 7.99 ± 0.29 10^12/L
  RET: 0.132 ± 0.017 10^12/L
  RET %: 1.65 ± 0.21%
  WBC: 4.50 ± 1.16 10^9/L
[12]
  EOS: 0.022 ± 0.014^* 10^9/L
  EOS%: 0.49 ± 0.29 %
  MONO: 0.04 ± 0.02^* 10^9/L
  MONO%: 0.9 ± 0.4%
  RBC: 7.05 ± 0.37 10^12/L
  RET: 0.387 ± 0.053^* 10^12/L
  RET %: 5.51 ± 0.83 %
  WBC: 4.24 ± 0.98 10^9/L
[13]
  EOS: 0.032 ± 0.011 10^9/L
  EOS%: 0.66 ± 0.21%
  MONO: 0.05 ± 0.02 10^9/L
  MONO%: 1.1 ± 0.3%
  RBC: 7.62 ± 0.37 10^12/L
  RET: 0.157 ± 0.008 10^12/L
  RET %: 2.07 ± 0.11 %
  WBC: 5.02 ± 0.40 10^9/L
